# Assays:
# [1] = tested on: hearing power; experiment: clinical test: audiometry just after intravenous injection (30 minutes); assay type: in vivo; conditions: 5o patients
# Protocol: (§1) Among patients who came into the hospital during the period of from September 1976 to September 1977 while complaining of deafness or tinnitus, those meeting the following conditions were chosen.
# (§2) Butoxybenzylhyoscyamine bromide was administered to 74 patients meeting the above conditions.
# (§3) In principle, a mixture of 4 mg of butoxybenzylhyoscyamine bromide with 2o % glucose was intravenously injected at first, and then, two capsules, each containing 5 mg of butoxybenzylhyoscyamine bromide, was administered 3-times per day (namely, 6 capsules being administered as a whole per day). The administration of capsules was conducted for one week.
# (§4) • (a) The standard autiometry (125 - 8ooo Hz, air and bone condition) was carried out before the injection. • (b) The same test was conducted 3o minutes after the injection. In patients complaining of tinnitus, the change of the degree of tinnitus was examined. • (c) The audiometry was carried out on the 7th day from the start of the oral administration. If the patients felt changes of hearing power or tinnitus during this period, the audiometry was appropriately conducted. • (d) During the oral administraion period of 7 days, desease conditions such as (1) hearing power (2) tinnitus, (3) other ear symptoms and (4) side effects were recorded in examination cards.
# (§5) • 1. Change of hearing power just after injection (3o minutes: • With respect to 5o patients, the audiometry was carried out just after the intravenous injection of butoxybenzylhyoscyamine bromide (3o minutes after the injection) to obtain results shown in table 2. Sounds of 25o Hz, 1000 Hz and 8000 Hz were chosen as typical instances of sounds of the low-tone, medium-tone and high-tone regions, respectively, and changes of the hearing power to these sounds were examined. The change within a range of + 5 dB was judged as "no change" and the change exceeding 5 dB was judged as "improvement" or "worsening". [formula] As will be apparent from the results shown in table 2, the highest improvement was 2o dB (1ooo Hz) but in many cases, the improvement was up to 15 dB. The improvement was higher in the order of the low-tone region (18%), the high-tone region (12 %) and the mediom-tone region (8%) and the average improvement of the hearing power after the intravenous injection was about 13 %. • 2. Improvement of Tinnitus: With respect to 41 patients complaining of tinnitus, the change of degree of tinnitus was examined after one week's oral administration to obtain results shown belof in table 3. [formula] As will be apparent from the results shown in table 3, the agent was effective in 15 patients (36%), though the agent of the present invention was ineffective in 24 patients (59%) or the agent worsened the state in 2 patients (5%). • 3. Change of hearing power after administration: Changes of the hearing power were examined during a period of 1 year and three months at longest after one week's administration. With respect to cases where high improving effects were attained, the clinical history will be described.
# [2] = tested on: male and female rats; experiment: chronic toxicity, continuous administration for 25 weeks; assay type: in vivo
# Protocol: Toxicity of butoxybenzylhyoscyamine bromide in detail: • (A) The acute toxicity, LDSo(mg/kg), is as shown in table 1 [formula] • (B) The compound was administered in an amount of 3.2, 8.0 or 2o mg/kg per day to male and female rats conti- nously during 25 weeks to determine the chronic toxicity.
# [3] = tested on: tinnitus; experiment: clinical test: change of degree of tinnitus after one week's oral administration; assay type: in vivo; conditions: 41 patients complaining of tinnitus
# Protocol: as §1, §2, §3, §4, §5
# [4] = tested on: hearing power; experiment: clinical test: change of hearing power after administration (case histories, audiograms); assay type: in vivo, patients
# Protocol: as §1, §3, §4, §5
# [5] = rats, 3.2, 8.0 or 2o mg/kg per day
structure (smiles),measurement,setting,value
"CCCCOc1ccc(C[N+]2(C)C3CCC2CC(OC(=O)C(CO)c2ccccc2)C3)cc1 (stereo not shown) [butoxybenzylhyoscyamine bromide, N-(p-n-butoxybenzyl)-hyoscyaminium bromide]",improvement of hearing power in many cases,[1]; 3o minutes after intravenous injection of 4 mg,up to 15 dB
same,highest improvement of hearing power,"[1]; 3o minutes after intravenous injection of 4 mg, 1ooo Hz",2o
same,"improvement, low-tone region","[1]; 3o minutes after intravenous injection, 25o Hz, change exceeding 5 dB judged as improvement",18%
same,"improvement, medium-tone region","[1]; 3o minutes after intravenous injection, 1000 Hz, change exceeding 5 dB judged as improvement",8%
same,"improvement, high-tone region","[1]; 3o minutes after intravenous injection, 8000 Hz, change exceeding 5 dB judged as improvement",12%
same,average improvement of the hearing power after the intravenous injection,"[1]; average of low-, medium- and high-tone regions",about 13%
same,change in organs (chronic toxicity),[2]; [5],no substantial change was observed in any organ
same,tests of blood and urine (chronic toxicity),[2]; [5],particular changes or disorders were not observed at all
same,changes observed (chronic toxicity),"[2]; rats, daily administered amount 2o mg/kg","inactive motion, mydriasis, control of increase of the body weight, storage of a small quantity of abdominal dropsy and formation of false membranes on the liver and spleen"
same,"tinnitus: effective, number of patients",[3],15 patients
same,"tinnitus: effective, share of patients",[3],36%
same,"tinnitus: ineffective, number of patients",[3],24 patients
same,"tinnitus: ineffective, share of patients",[3],59%
same,"tinnitus: state worsened, number of patients",[3],2 patients
same,"tinnitus: state worsened, share of patients",[3],5%
same,"tinnitus, Case 2",[4]; person with the improvement of the hearing power,Tinnitus disappeared
same,"hearing loss, Case 6","[4]; person, 3o minutes after intravenous injection",the hearing loss was extremely reduced
same,"hearing power after second 1 week oral administration, Case 4","[4]; person, at termination of the second oral administration",further improved in the low-tone region
same,"hearing power restored on the average, Case 4","[4]; person, fixed perceptive deafness, one intravenous injection then 1 week oral, after 3 weeks",about 1o
same,"hearing power restored at maximum, Case 4","[4]; person, fixed perceptive deafness, one intravenous injection then 1 week oral, after 3 weeks, 2 KHz",2o
same,"change of hearing power, Case 3","[4]; person, fixed sudden deafness of right ear, repeated intravenous injection",remarkably improved in the low-tone region
same,"hearing loss after about 1 month, Case 2","[4]; person, left ear, hearing loss about 5o dB before, one week oral administration with S.G.B.",1o
same,"hearing power after one week's administration, Case 2","[4]; person, left ear, hearing loss about 5o dB before, oral administration while conducting S.G.B.",returned to the level equal to the level at the first examination
same,"change of hearing power, Case 5","[4]; person, perceptive deafness of left ear, oral, 3 weeks, 6 capsules per day",gradually recovered but was not returned to the normal level
same,"change of hearing power, Case 1","[4]; person, perceptive deafness, six capsules of 5 mg per day",the improvement was observed in the low-tone region after the administration

# Source: patent EP0002051A1, “Use of butoxybenzylhyoscyamine bromide in pharmaceutical compositions against deafness and tinnitus” (Eisai Co., Ltd., priority 1977, dated 1979)
